Assay results reported in patent US9540343B2 (Gilead Sciences, Inc., priority 2011, dated 2017).

Legend:
MT-4 cells = assay: in vitro; details: uninfected MT-4 cells, same protocol as Test A, 5 days, CellTiter-Glo
How it was run: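 Cytoprotection read-out: CellTiter-Glo chemiluminescence after 5 days at 37 °C of HIV-IIIb-infected MT-4 cells (m.o.i. 0.003) with compound in 10-point 3-fold dilutions, quadruplicate, 10% FBS. Cytotoxicity (CC50) measured identically without virus.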

HIV-IIIb = assay: Test A: Antiviral assay in MT4 cells; assay type: cell-based, HIV-1; details: percent inhibition of virus-induced cell killing, from dose response curve at 2 uM drug; MT-4 cells infected with HIV-IIIb, 5 days, CellTiter-Glo

Compound | CC50 (MT-4 cells) [µM] | % inhibition at 2 μM (HIV-IIIb) [%]
CC12CCC(c3c(C(F)(F)F)nn(CC(=O)N[C@@H](Cc4cc(F)cc(F)c4)c4ncccc4-c4ccc(F)c(C(N)=O)c4)c31)C2(C)C (stereo partly drawn) [Example 93B, (S)-5-(2-(2-(3,5-difluorophenyl)-1-(2-(D-4,5,6,7-Tetrahydro-3-trifluoromethyl-7,8,8-trimethyl-1H-4,7-(methano)indazol-1-yl)acetamido)ethyl)pyridin-3-yl)-2-fluorobenzamide] | 8.14 | 0
NC(=O)c1cc(-c2cccnc2[C@H](Cc2cc(F)cc(F)c2)NC(=O)Cn2nc(C(F)(F)F)c3c2C(O)C2CC32)ccc1F (stereo partly drawn) [Example 155, 5-(2-((1S)-2-(3,5-difluorophenyl)-1-(2-(5-hydroxy-3-(trifluoromethyl)-3b,4,4a,5-tetrahydro-1H-cyclopropa[3,4]cyclopenta[1,2-c]pyrazol-1-yl)acetamido)ethyl)pyridin-3-yl)-2-fluorobenzamide] | 37 | 97
NC(=O)c1cc(-c2cccnc2[C@H](Cc2cc(F)cc(F)c2)NC(=O)Cn2nc(C(F)(F)F)c3c2C(O)C2CC32)ccc1F (stereo partly drawn) [Example 156, 5-(2-((1S)-2-(3,5-difluorophenyl)-1-(2-(5-hydroxy-3-(trifluoromethyl)-3b,4,4a,5-tetrahydro-1H-cyclopropa[3,4]cyclopenta[1,2-c]pyrazol-1-yl)acetamido)ethyl)pyridin-3-yl)-2-fluorobenzamide] | 39.2 | 30
NC(=O)c1cc(-c2cccnc2[C@H](Cc2cc(F)cc(F)c2)NC(=O)Cn2nc(C(F)F)c3c2C2CC2C3)ccc1F (stereo partly drawn) [Example 163C, 5-(2-((1S)-1-(2-(3-(difluoromethyl)-4,4-a,5,5a-tetrahydro-1H-cyclopropa[4,5]cyclopenta[1,2-c]pyrazol-1-yl)acetamido)-2-(3,5-difluorophenyl)ethyl)pyridin-3-yl)-2-fluorobenzamide] | 27.4 | 105
NC(=O)c1cccc(-c2cccnc2[C@H](Cc2cc(F)cc(F)c2)NC(=O)CC2C(=O)Nc3ccccc32)c1 (stereo partly drawn) [Example 192, 3-(2-((1S)-2-(3,5-difluorophenyl)-1-(2-(2-oxoindolin-3-yl)acetamido)ethyl)pyridin-3-yl)benzamide] | 47.6 | 2
Cc1cc(-c2cccnc2[C@H](Cc2cc(F)cc(F)c2)NC(=O)Cc2c[nH]c3ccc(F)cc23)cnc1F [Example 399] | 12.8 | 31
CC(C)CC(=O)NS(=O)(=O)c1ccc(-c2cccnc2C(Cc2cc(F)cc(F)c2)NC(=O)Cn2nc(C(F)F)c3c2C(F)(F)C2C[C@H]32)cc1 (stereo partly drawn) [Example 427, (S)—N-(1-(3-(4-(N-(3-methylbutanoyl)sulfamoyl)phenyl)-pyridin-2-yl)-2-(3,5-difluorophenyl)ethyl)-2-(3-(difluoromethyl)-5,6-dihydro-4,5-(methano)-6,6-difluoro-cyclopenta[c]pyrazol-1(4H)-yl)acetamide] | 32.8 | 0
CNS(=O)(=O)c1ccc(-c2cccnc2C(Cc2cc(F)cc(F)c2)NC(=O)Cn2nc(C(F)F)c3c2C(F)(F)C2C[C@H]32)cc1 (stereo partly drawn) [Example 429, (S)—N-(1-(3-(4-(N-methylsulfamoyl)phenyl)-pyridin-2-yl)-2-(3,5-difluorophenyl)ethyl)-2-(3-(difluoromethyl)-5,6-dihydro-4,5-(methano)-6,6-difluoro-cyclopenta[c]pyrazol-1(4H)-yl)acetamide] | 41.6 | 57
CCC(C(=O)N[C@@H](Cc1cc(F)cc(F)c1)c1ncccc1-c1ccc(F)c(C(N)=O)c1)n1cc(C(C)=O)c2ccccc21 (stereo partly drawn) [Example 544, 5-(2-((1S)-1-(2-(3-acetyl-1H-indol-1-yl)butanamido)-2-(3,5-difluorophenyl)ethyl)pyridin-3-yl)-2-fluorobenzamide] | > 53.2 | 75
